# Measured values as given in patent US20230203081A1, “LINCOSAMIDE ANTIBIOTICS AND USES THEREOF” (President and Fellows of Harvard College, priority 2020, published 2023).
# Like-named read-outs stand apart in the source and are kept apart here.
# Experiments:
# Type in all cases: cell-based
# [1] = system: E. faecalis MMX 847; cErmB; experiment: MIC (broth microdilution or agar dilution, CLSI); details: Enterococcus faecalis
# In short: (§1)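 Per CLSI, MICs by broth microdilution or agar dilution; strains other than streptococci and anaerobes were sub-cultured overnight at 35° C on blood agar, with a final broth inoculum of 5×10^5 CFU/mL.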
# S. aureus MMX 3035 cErmA = experiment: MIC (broth microdilution or agar dilution, CLSI); details: Staphylococcus aureus, MMX3035CERMA
# In short: as §1
# K. pneumoniae ATCC 10031 = experiment: MIC (broth microdilution or agar dilution, CLSI); details: Klebsiella pneumoniae
# In short: as §1
# S. pyogenes ATCC 19615 = experiment: MIC (broth microdilution or agar dilution, CLSI); details: Streptococcus pyogenes
# In short: as §1
# S. aureus ATCC 700699 = experiment: MIC (broth microdilution or agar dilution, CLSI); details: Staphylococcus aureus
# In short: as §1
# E. coli LptD = experiment: MIC (broth microdilution or agar dilution, CLSI); details: Escherichia coli, read-out: MIC
# In short: as §1
# E. coli ATCC 25922 = experiment: MIC (broth microdilution or agar dilution, CLSI); details: Escherichia coli
# In short: as §1
# K. oxytoca Clinical = experiment: MIC (broth microdilution or agar dilution, CLSI)
# In short: as §1
# [2] = system: S. pneumoniae MMX 3028 cErmB; experiment: MIC (broth microdilution or agar dilution, CLSI); details: Streptococcus pneumoniae, MMX3028CERMB
# In short: as §1
# S. pneumoniae ATCC 49619 = experiment: MIC (broth microdilution or agar dilution, CLSI); details: Streptococcus pneumoniae
# In short: as §1
# S. pneumoniae ATCC 6303 = experiment: MIC (broth microdilution or agar dilution, CLSI)
# In short: as §1
# S. aureus hVISA = experiment: MIC (broth microdilution or agar dilution, CLSI)
# In short: as §1
# [3] = system: S. pneumoniae MMX 3031 cMefA; experiment: MIC (broth microdilution or agar dilution, CLSI); details: Streptococcus pneumoniae, MMX3031CMEFA
# In short: as §1
# [4] = system: S. pyogenes MMX 946; cErmB; experiment: MIC (broth microdilution or agar dilution, CLSI); details: Streptococcus pyogenes
# In short: as §1
# [5] = system: S. aureus ATCC BAA-1707 (MRSA); experiment: MIC (broth microdilution or agar dilution, CLSI)
# In short: as §1
# E. faecalis ATCC 29212 = experiment: MIC (broth microdilution or agar dilution, CLSI); details: Enterococcus faecalis
# In short: as §1
# S. aureus BAA 977 iErmA = experiment: microbe, parasite or virus in culture; details: Staphylococcus aureus
# In short: as §1
# S. aureus MP-549 msrA = experiment: microbe, parasite or virus in culture; details: Staphylococcus aureus, MP549MSRA
# In short: as §1
# E. coli armA = experiment: microbe, parasite or virus in culture; details: Escherichia coli, E. coli armA
# In short: as §1
# E. coli ΔTolC = experiment: microbe, parasite or virus in culture; details: Escherichia coli
# In short: as §1
# S. aureus ATCC 29213 = experiment: MIC (broth microdilution or agar dilution, CLSI); details: Staphylococcus aureus
# In short: as §1
# [6] = ATCC19615, S. pyogenes HAV#004, ATCC 19615, read-out: MIC
# [7] = ATCC49619, S. pneumoniae HAV#003, ATCC 49619, read-out: MIC
# [8] = S. pneumoniae HAV#034, MMX 3031, cMefA, read-out: MIC
# [9] = ATCC29212, E. faecalis HAV#005, ATCC 29212, read-out: MIC
compound,measurement,setting,value
"CCC[C@@H]1C[C@@H](C(=O)N[C@@H]([C@H]2O[C@H](SC)[C@H](O)[C@@H](O)[C@H]2O)[C@H](C)Cl)N(C)C1 [Clindamycin, clindamycin, reference compound]",MIC,"[1]; E. faecalis MMX 847, cErmB",> 128 µg/mL
same,MIC,"[1]; E. faecalis MMX 847, cErmB, read-out: MIC",> 64 µg/mL
same,MIC,"S. aureus MMX 3035 cErmA; S. aureus MMX 3035 cErmA, read-out: MIC",> 64 µg/mL
same,MIC,"K. pneumoniae ATCC 10031; ATCC10031, K. pneumoniae ATCC 10031, read-out: MIC",16 µg/mL
same,MIC,"S. pyogenes ATCC 19615; ATCC19615, S. pyogenes ATCC 19615, read-out: MIC",≤ 0.06 µg/mL
same,MIC,S. pyogenes ATCC 19615; [6],0.06 µg/mL
same,MIC,S. aureus ATCC 700699; ATCC700699,> 128 µg/mL
same,MIC,S. aureus ATCC 700699; ATCC 700699 / VISA,> 128 µg/mL
same,MIC,"E. coli LptD; E. coli HAV#040, LptD",4 µg/mL
same,MIC,E. coli LptD; E. coli LptD,2 µg/mL
same,MIC,"E. coli ATCC 25922; ATCC25922, E. coli ATCC 25922",> 128 µg/mL
same,MIC,"E. coli ATCC 25922; ATCC25922, E. coli ATCC 25922, read-out: MIC",> 64 µg/mL
same,MIC,"E. coli ATCC 25922; ATCC25922, E. coli HAV#006, ATCC 25922",> 128 µg/mL
same,MIC,"K. oxytoca Clinical; K. oxytoca HAV#450, Clinical",>128 µg/mL
same,MIC,K. oxytoca Clinical; Klebsiella oxytoca,> 128 µg/mL
same,MIC,[2]; S. pneumoniae MMX 3028 cErmB,> 128 µg/mL
same,MIC,"[2]; S. pneumoniae MMX 3028 cErmB, read-out: MIC",> 64 µg/mL
same,MIC,"S. pneumoniae ATCC 49619; ATCC49619, S. pneumoniae ATCC 49619, read-out: MIC",≤ 0.06 µg/mL
same,MIC,S. pneumoniae ATCC 49619; [7],0.06 µg/mL
same,MIC,"S. pneumoniae ATCC 6303; S. pneumoniae HAV#351, ATCC 6303",0.06 µg/mL
same,MIC,"S. pneumoniae ATCC 6303; Streptococcus pneumoniae, ATCC6303, S. pneumoniae ATCC 6303, read-out: MIC",0.06 µg/mL
same,MIC,"S. aureus hVISA; S. aureus HAV#204, hVISA",>128 µg/mL
same,MIC,S. aureus hVISA; Staphylococcus aureus,> 128 µg/mL
same,MIC,[3]; [8],< 0.06 µg/mL
same,MIC,"[3]; S. pneumoniae MMX 3031 cMefA, read-out: MIC",0.06 µg/mL
same,MIC,"[4]; S. pyogenes MMX 946, cErmB",> 128 µg/mL
same,MIC,"[4]; S. pyogenes MMX 946, cErmB, read-out: MIC",> 64 µg/mL
same,MIC,"[5]; S. aureus HAV#016, ATCC BAA-1707, MRSA",0.125 µg/mL
same,MIC,[5]; Staphylococcus aureus,0.125 µg/mL
same,MIC,"E. faecalis ATCC 29212; ATCC29212, E. faecalis ATCC 29212, read-out: MIC",16 µg/mL
same,MIC,E. faecalis ATCC 29212; [9],16 µg/mL
same,MIC,S. aureus BAA 977 iErmA; BAA977,0.12 µg/mL
same,MIC,S. aureus BAA 977 iErmA; BAA-977 / MRSA,0.125 µg/mL
same,MIC,"S. aureus BAA 977 iErmA; BAA-977 / MRSA, 24 h",> 128 µg/mL
same,MIC,S. aureus MP-549 msrA; S. aureus MP-549 msrA,0.12 µg/mL
same,MIC,"S. aureus MP-549 msrA; S. aureus HAV#032, MP-549, MSR(A)",0.125 µg/mL
same,MIC,E. coli armA,> 128 µg/mL
same,MIC,E. coli ΔTolC; E. coli ΔTolC,4 µg/mL
C[C@H]1c2cccc(O)c2C(=O)C2=C(O)[C@]3(O)C(=O)C(C(N)=O)=C(O)[C@@H](N(C)C)[C@@H]3[C@@H](O)[C@@H]21 [Doxycycline],MIC,"S. aureus ATCC 29213; ATCC29213, S. aureus HAV#001, ATCC 29213, MP-549, read-out: MIC",0.25 µg/mL
same,MIC,"[1]; E. faecalis HAV#036, MMX 847, mac-resistant, cErmB, read-out: MIC",16 µg/mL
same,MIC,"S. aureus MMX 3035 cErmA; S. aureus HAV#031, MMX 3035, cErmA, read-out: MIC",0.25 µg/mL
same,MIC,S. pyogenes ATCC 19615; [6],0.125 µg/mL
same,MIC,"S. aureus ATCC 700699; S. aureus HAV#202, ATCC 700699 (VISA), read-out: MIC",16 µg/mL
same,MIC,"K. oxytoca Clinical; Klebsiella oxytoca, K. oxytoca HAV#450, Clinical, read-out: MIC",8 µg/mL
same,MIC,"[2]; S. pneumoniae HAV#033, MMX 3028, cErmB, read-out: MIC",1 µg/mL
same,MIC,S. pneumoniae ATCC 49619; [7],0.125 µg/mL
same,MIC,"S. pneumoniae ATCC 6303; Streptococcus pneumoniae, ATCC6303, S. pneumoniae HAV#351, ATCC 6303, read-out: MIC",0.125 µg/mL
same,MIC,"S. aureus hVISA; Staphylococcus aureus, S. aureus HAV#204, hVISA, read-out: MIC",16 µg/mL
same,MIC,[3]; [8],0.125 µg/mL
same,MIC,"[4]; S. pyogenes HAV#035, MMX 946, cErmB, mac-resistant, read-out: MIC",0.125 µg/mL
same,MIC,"[5]; Staphylococcus aureus, S. aureus HAV#016, ATCC BAA-1707, MRSA, read-out: MIC",0.25 µg/mL
same,MIC,E. faecalis ATCC 29212; [9],4 µg/mL
same,MIC,S. aureus BAA 977 iErmA; BAA-977 / MRSA,0.25 µg/mL
same,MIC,"S. aureus MP-549 msrA; S. aureus HAV#032, MP-549, MSR(A), read-out: MIC",8 µg/mL
CN[C@H](CC(C)C)C(=O)N[C@H]1C(=O)N[C@@H](CC(N)=O)C(=O)N[C@H]2C(=O)N[C@H]3C(=O)N[C@H](C(=O)N[C@H](C(=O)O)c4cc(O)cc(O)c4-c4cc3ccc4O)[C@H](O)c3ccc(c(Cl)c3)Oc3cc2cc(c3O[C@@H]2O[C@H](CO)[C@@H](O)[C@H](O)[C@H]2O[C@H]2C[C@](C)(N)[C@H](O)[C@H](C)O2)Oc2ccc(cc2Cl)[C@H]1O [Vancomycin],MIC,S. aureus ATCC 29213; ATCC29213,1 µg/mL
same,MIC,[1],> 64 µg/mL
same,MIC,S. aureus MMX 3035 cErmA,2 µg/mL
same,MIC,K. pneumoniae ATCC 10031; ATCC10031,> 64 µg/mL
same,MIC,S. pyogenes ATCC 19615; ATCC19615,0.5 µg/mL
same,MIC,S. aureus ATCC 700699; ATCC 700699 / VISA,8 µg/mL
same,MIC,"E. coli LptD; E. coli HAV#040, LptD",1 µg/mL
same,MIC,E. coli ATCC 25922; ATCC25922,> 128 µg/mL
same,MIC,[2],0.25 µg/mL
same,MIC,S. pneumoniae ATCC 49619; ATCC49619,0.5 µg/mL
same,MIC,"S. pneumoniae ATCC 6303; Streptococcus pneumoniae, ATCC6303",0.5 µg/mL
same,MIC,S. aureus hVISA; Staphylococcus aureus,2 µg/mL
same,MIC,[3],0.5 µg/mL
same,MIC,[4],0.5 µg/mL
same,MIC,[5]; Staphylococcus aureus,1 µg/mL
same,MIC,E. faecalis ATCC 29212; ATCC29212,4 µg/mL
same,MIC,S. aureus BAA 977 iErmA; BAA-977 / MRSA,1 µg/mL
same,MIC,S. aureus MP-549 msrA,1 µg/mL
same,MIC,E. coli ΔTolC,> 128 µg/mL
